Values of other authors in patent publication US20090214598A1, “Monovalent and polyvalent synthetic polysaccharide antigens for immunological intervention in disease” (Eli Lilly and Company, priority 2005, published 2009).

Conditions: literature reports (U.S. Pat. No. 4,395,399; Chedid 1983)

## CC(=O)N[C@H]1C(O)O[C@H](CO)[C@@H](O)[C@@H]1O[C@H](C)C(=O)N[C@@H](C)C(=O)N[C@H](CCC(=O)O)C(N)=O (mixture of isomers) [MDP, muramyl dipeptide]
  inflammatory response as reported: inflammatory in nature
